The record followed here is patent US10793557B2, “Sting agonist compounds” (Merck Sharp & Dohme Corp., priority 2018, dated 2020).

The target in test [1] is T1, full-length WT STING (Homo sapiens, UniProt Q86WV6, H232R).
T1 construct: AviTag (after gg linker) (C); HRV3C cleavage site (after gs linker) (C); HIS8 (C); made in house; host or cells: Trichoplusia ni (Hi-Five) insect cells infected with baculovirus (virus generated and amplified in Sf21 cells); used as a washed membrane preparation
The test is described as follows: 3H-cGAMP filtration binding assay (WT STING). The conditions noted are these: competition with tritiated cGAMP, WT STING membrane. Summed up: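 Competitive filtration binding of [3H]cGAMP (16 nM working stock) to T. ni membranes overexpressing full-length WT human STING, 60 min at RT in PBS. Bound radioactivity counted after GF/B filtration; 10-point 1:3 titration, EC50 from 4-parameter fit after control normalisation.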

In test [2] the target is T2, full-length HAQ STING (Homo sapiens, UniProt Q86WV6, G230A/H232R/R293Q/R71H).
T2 construct: AviTag (after GG linker) (C); HRV3C cleavage site (after GS linker) (C); HIS8 (C); made in house; host or cells: Trichoplusia ni (Hi-Five) insect cells infected with baculovirus (virus generated and amplified in Sf21 cells); used as a washed membrane preparation
T2 sequence (Q86WV6 with tags, fused parts or gaps R71H/G230A/H232R/R293Q): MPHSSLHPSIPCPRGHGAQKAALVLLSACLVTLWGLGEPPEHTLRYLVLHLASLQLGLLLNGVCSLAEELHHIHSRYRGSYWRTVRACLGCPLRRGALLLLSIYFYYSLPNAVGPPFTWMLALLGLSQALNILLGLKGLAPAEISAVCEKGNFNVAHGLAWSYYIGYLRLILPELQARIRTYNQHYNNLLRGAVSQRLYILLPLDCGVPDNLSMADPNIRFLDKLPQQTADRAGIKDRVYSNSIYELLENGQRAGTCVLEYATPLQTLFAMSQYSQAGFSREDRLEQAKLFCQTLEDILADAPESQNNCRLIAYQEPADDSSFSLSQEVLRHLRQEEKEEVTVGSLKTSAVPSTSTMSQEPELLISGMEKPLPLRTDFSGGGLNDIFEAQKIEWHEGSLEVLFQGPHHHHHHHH
The test is described as follows: 3H-cGAMP filtration binding assay (HAQ STING). The conditions noted are these: competition with tritiated cGAMP, HAQ STING membrane. In a few lines: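 Hi-Five (T. ni) membranes overexpressing the STING variant (2.2 ug/ml working) preincubated with compound 60 min at RT in PBS, then [3H]cGAMP (8 nM working stock) added for 60 min at RT. Bound radioactivity captured on GF/B filters and counted by scintillation; EC50 from 4-parameter fit of control-normalized activity.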

Test [3] deals with secretion of interferon-beta from THP1 cells. The test is described as follows: IFN-β secretion in THP1 cell culture (5 h). The test is classed as cell-based. The conditions noted are these: Homo sapiens, THP-1, 5 h, compound at 30 μM, 30 uM cGAMP = 100%, read-out: % Effect at 30 μM relative to 2′3′-cGAMP. Summed up:
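Thawed THP1 cells (0.8×10^6/mL, RPMI with 0.5% FBS) exposed to compounds 1.5–30000 nM (0.3% DMSO) for 5 h at 37 °C. Supernatant IFN-β quantified by AlphaLISA. Percent effect normalised to 30 uM cGAMP and DMSO controls; EC50 from 4-parameter fit.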

T1 sequence (Q86WV6 with tags, fused parts or gaps H232R): as the sequence (Q86WV6 with tags, fused parts or gaps R71H/G230A/H232R/R293Q) above, with H71R, A230G, Q293R counted along it

As to `COc1cc2sc(C(=O)C[C@H](C)C(=O)O)cc2cc1OCCOc1ccc2cc(C(=O)CCC(=O)O)sc2c1` [Example 56, (S)-4-(5-(2-((2-(3-carboxypropanoyl)benzo[b]thiophen-6-yl)oxy)ethoxy)-6-methoxybenzo[b]thiophen-2-yl)-2-methyl-4-oxobutanoic acid], the results for the EC50 in test [1] and in test [2] were 3130 nM and 1070 nM, respectively. Moreover, the activation at 30 µM in test [3] was found to be 30%.
Taken in the same sequence, the figures for `COc1cc2sc(C(=O)C[C@H](C)C(=O)O)cc2cc1OCCCOc1nc2cc(C(=O)C[C@H](C)C(=O)O)sc2cc1OC` [Example 58, (S)-4-(5-(3-((2-((S)-3-carboxybutanoyl)-6-methoxybenzo[b]thiophen-5-yl)oxy)propoxy)-6-methoxythieno[3,2-b]pyridin-2-yl)-2-methyl-4-oxobutanoic acid] were 1 nM, 1 nM and 46%.
Taken in the same sequence, the figures for `COc1cc2sc(C(=O)C[C@H](C)C(=O)O)cc2nc1OCCCOc1c(OC)cc2sc(C(=O)CC(C)(C)C(=O)O)cc2c1F` [Example 59, (S)-4-(5-(3-((2-(3-carboxybutanoyl)-6-methoxythieno[3,2-b]pyridin-5-yl)oxy)propoxy)-4-fluoro-6-methoxybenzo[b]thiophen-2-yl)-2,2-dimethyl-4-oxobutanoic acid] were 2 nM, 1 nM and 18%.
For `COc1cc2sc(C(=O)C[C@H](C)C(=O)O)cc2cc1CCNc1cc2cc(C(=O)C[C@H](C)C(=O)O)sc2cc1OC` [Example 60, (2S)-4-{5-[2-({2-[(3S)-3-carboxybutanoyl]-6-methoxy-1-benzothiophen-5-yl}amino)ethyl]-6-methoxy-1-benzothiophen-2-yl}-2-methyl-4-oxobutanoic acid], in that order: 67 nM, 19 nM and 106%.
In the case of `COc1cc2sc(C(=O)C[C@H](C)C(=O)O)cc2cc1CCCNc1cc2cc(C(=O)C[C@H](C)C(=O)O)sc2cc1OC` [Example 61, (S)-4-(5-(3-((2-((S)-3-carboxybutanoyl)-6-methoxybenzo[b]thiophen-5-yl)amino)propyl)-6-methoxybenzo[b]thiophen-2-yl)-2-methyl-4-oxobutanoic acid], the EC50 in test [1] came out at 327 nM; in test [2] it was 33 nM. Moreover, in test [3], the activation at 30 µM was 62%.
For `COc1cc2sc(C(=O)CCC(=O)O)cc2c(F)c1OCCCOc1c(OC)cc2sc(C(=O)CCC(=O)O)cc2c1F` [Example 62, 4,4′-((propane-1,3-diylbis(oxy))bis(4-fluoro-6-methoxybenzo[b]thiophene-5,2-diyl))bis(4-oxobutanoic acid)], in that order: 2 nM, 2 nM and 106%.
For `COc1cc2sc(C(=O)CCC(=O)O)cc2c(F)c1OCCOc1c(OC)cc2sc(C(=O)C[C@H](C)C(=O)O)cc2c1F` [Example 63, (S)-4-(5-(2-((2-(3-carboxypropanoyl)-4-fluoro-6-methoxybenzo[b]thiophen-5-yl)oxy)ethoxy)-4-fluoro-6-methoxybenzo[b]thiophen-2-yl)-2-methyl-4-oxobutanoic acid], in that order: 4 nM, 1 nM and 62%.
Take `COc1cc2sc(C(=O)CCC(=O)O)cc2c(F)c1OCCCOc1c(OC)cc2sc(C(=O)C[C@H](C)C(=O)O)cc2c1F` [Example 64, (S)-4-(5-(3-((2-(3-carboxypropanoyl)-4-fluoro-6-methoxybenzo[b]thiophen-5-yl)oxy)propoxy)-4-fluoro-6-methoxybenzo[b]thiophen-2-yl)-2-methyl-4-oxobutanoic acid]: the concentration for a half-maximal effect (EC50) in test [1] came to 4 nM; in test [2] it was 2 nM. Moreover, in test [3], the activation at 30 µM stood at 58%.
For `COc1cc2sc(C(=O)CCC(=O)O)cc2c(F)c1OCCOc1c(OC)cc2sc(C(=O)CCC(=O)O)cc2c1F` [Example 65, 4,4′-((ethane-1,2-diylbis(oxy))bis(4-fluoro-6-methoxybenzo[b]thiophene-5,2-diyl))bis(4-oxobutanoic acid)], in that order: 1 nM, 1 nM and 105%.
For `COc1cc2sc(C(=O)C[C@@H](C)C(=O)O)cc2cc1OCCOc1c(OC)cc2sc(C(=O)C[C@H](C)C(=O)O)cc2c1F` [Example 66, (R)-4-(5-(2-((2-((S)-3-carboxybutanoyl)-4-fluoro-6-methoxybenzo[b]thiophen-5-yl)oxy)ethoxy)-6-methoxybenzo [b]thiophen-2-yl)-2-methyl-4-oxobutanoic acid], in that order: 20 nM, 4 nM and 103%.
Regarding `COc1cc2sc(C(=O)C[C@H](C)C(=O)O)cc2cc1OCCOc1c(OC)cc2sc(C(=O)C[C@H](C)C(=O)O)cc2c1F` [Example 67, (S)-4-(5-(2-((2-((S)-3-carboxybutanoyl)-4-fluoro-6-methoxybenzo[b]thiophen-5-yl)oxy)ethoxy)-6-methoxybenzo[b]thiophen-2-yl)-2-methyl-4-oxobutanoic acid], the EC50 turned out to be 45 nM in test [1] and 40 nM in test [2]. For the same molecule, the activation at 30 µM in test [3] turned out to be 92%.
`COc1cc2sc(C(=O)C[C@H](C)C(=O)O)cc2cc1OCCCOc1c(OC)cc2sc(C(=O)C[C@H](C)C(=O)O)cc2c1F` [Example 69, (S)-4-(5-(3-((2-((S)-3-carboxybutanoyl)-4-fluoro-6-methoxybenzo[b]thiophen-5-yl)oxy)propoxy)-6-methoxybenzo[b]thiophen-2-yl)-2-methyl-4-oxobutanoic acid]: the EC50 was 2 nM in test [1] and 1 nM in test [2]. In test [3], the activation at 30 µM was determined as 46%.
Taken in the same sequence, the figures for `COc1cc2cc(C(=O)C[C@H](C)C(=O)O)sc2cc1OCCCOc1c(OC)cc2sc(C(=O)C[C@H](C)C(=O)O)cc2c1F` [Example 70, (S)-4-(6-(3-((2-((S)-3-carboxybutanoyl)-4-fluoro-6-methoxybenzo[b]thiophen-5-yl)oxy)propoxy)-5-methoxybenzo[b]thiophen-2-yl)-2-methyl-4-oxobutanoic acid] were 1 nM, 1 nM and 47%.
For `COc1cc2sc(C(=O)C[C@H](C)C(=O)O)cc2cc1OCCCOc1c(OC)cc2sc(C(=O)CC(C)(C)C(=O)O)cc2c1F` [Example 71, (S)-4-(5-(3-((2-(3-carboxybutanoyl)-6-methoxybenzo[b]thiophen-5-yl)oxy)propoxy)-4-fluoro-6-methoxybenzo[b]thiophen-2-yl)-2,2-dimethyl-4-oxobutanoic acid], in that order: 2 nM, 3 nM and 15%.
For `COc1cc2sc(C(=O)C[C@H](C)C(=O)O)cc2cc1OCCCOc1c(OC)cc2sc(C(=O)CCC(=O)O)cc2c1F` [Example 72, (S)-4-(5-(3-((2-(3-carboxypropanoyl)-4-fluoro-6-methoxybenzo[b]thiophen-5-yl)oxy)propoxy)-6-methoxybenzo[b]thiophen-2-yl)-2-methyl-4-oxobutanoic acid], in that order: 2 nM, 1 nM and 77%.
With `COc1cc2cc(C(=O)C[C@H](C)C(=O)O)sc2cc1OCCCOc1c(OC)cc2sc(C(=O)CCC(=O)O)cc2c1F` [Example 73, (S)-4-(6-(3-((2-(3-carboxypropanoyl)-4-fluoro-6-methoxybenzo[b]thiophen-5-yl)oxy)propoxy)-5-methoxybenzo[b]thiophen-2-yl)-2-methyl-4-oxobutanoic acid], the 50% effective concentration (EC50) in test [1] turned out to be 4 nM; in test [2], 1 nM. The activation at 30 µM in test [3] stood at 67%.
Taken in the same sequence, the figures for `COc1cc2sc(C(=O)C[C@H](C)C(=O)O)cc2cc1NCCCOc1cc2cc(C(=O)C[C@H](C)C(=O)O)sc2cc1OC` [Example 74, (S)-4-(5-(3-((2-((S)-3-carboxybutanoyl)-6-methoxybenzo[b]thiophen-5-yl)amino)propoxy)-6-methoxybenzo[b]thiophen-2-yl)-2-methyl-4-oxobutanoic acid] were 6 nM, 4 nM and 16%.
Take `COc1cc2sc(C(=O)CCC(=O)O)cc2cc1CCCNc1nc2cc(C(=O)CCC(=O)O)sc2cc1OC` [Example 75, 4-(5-((3-(2-(3-carboxypropanoyl)-6-methoxybenzo[b]thiophen-5-yl)propyl)amino)-6-methoxythieno[3,2-b]pyridin-2-yl)-4-oxobutanoic acid]: the EC50 in test [1] was found to be 691 nM; in test [2], 139 nM. Besides, the activation at 30 µM in test [3] stood at 63%.

Usually EC50 stands for the concentration giving half of the maximal effect.
